# Target: NS3 (Hepatitis C virus, UniProt A3EZJ3)
# Experiment: In vitro antiviral activity against hepatitis C virus (HCV) NS3 protease using scintillation proximity assay
# Parameters: species or system Hepacivirus hominis
# Chain of NS3 (A3EZJ3 whole entry): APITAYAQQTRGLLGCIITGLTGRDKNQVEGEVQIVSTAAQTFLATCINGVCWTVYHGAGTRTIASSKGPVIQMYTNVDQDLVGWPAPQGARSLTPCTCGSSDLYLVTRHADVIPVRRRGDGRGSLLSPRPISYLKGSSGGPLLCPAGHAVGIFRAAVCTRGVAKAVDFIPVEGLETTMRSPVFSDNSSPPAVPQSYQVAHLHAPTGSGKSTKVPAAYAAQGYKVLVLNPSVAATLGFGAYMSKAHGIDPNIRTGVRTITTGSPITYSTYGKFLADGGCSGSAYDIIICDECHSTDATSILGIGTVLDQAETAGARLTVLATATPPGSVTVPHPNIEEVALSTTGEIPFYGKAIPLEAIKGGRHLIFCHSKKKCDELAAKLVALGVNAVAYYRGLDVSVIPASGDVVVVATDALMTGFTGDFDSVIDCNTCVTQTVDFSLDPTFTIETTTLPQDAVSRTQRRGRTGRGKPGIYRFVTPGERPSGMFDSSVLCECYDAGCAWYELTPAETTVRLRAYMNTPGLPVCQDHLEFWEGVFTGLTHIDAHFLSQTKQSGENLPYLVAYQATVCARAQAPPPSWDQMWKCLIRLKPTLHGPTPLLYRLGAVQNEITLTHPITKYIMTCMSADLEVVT
row,SMILES,IC50 [µM]
1,O=C1C=C2C(=CCOC2OC(=O)c2ccc(Br)cc2)O1 (stereo not drawn),37.4
2,CC(=O)OC1OCC=C2OC(=O)C=C21 (stereo not drawn),36.7
3,O=C1C=C2C(=CCOC2O)O1 (stereo not drawn) [PATULIN],24.7

# From ChEMBL document CHEMBL1131788, “Isolation and structure of SCH 351633: a novel hepatitis C virus (HCV) NS3 protease inhibitor from the fungus Penicillium griseofulvum” (Bioorg Med Chem Lett, 1999)
